Reference: patent publication US7652047B2, “Phenylamino isothiazole carboxamidines as MEK inhibitors” (Ardea Biosciences, Inc., priority 2005, dated 2010)

Target: T1, MEK1^CA (human GST-MEK1, constitutively active, Ser218Asp and Ser222Asp) (Homo sapiens, UniProt Q02750, S218D/S222D)
T1 construct: GST; made in house; host or cells: Escherichia coli
Assay: MEK1 enzymatic activity assay (MEK1^CA / ERK2 / MBP, [γ-33P]ATP incorporation)
Assay type: biochemical
Conditions: Table 1, compounds of formula I; read-out: Avg IC50
Description: Materials and preparation of reagents: Human GST-MEK1 and the constitutively active allele GST-MEK1^CA (harboring the mutations Ser218Asp and Ser222Asp) were subcloned into the […] expression vector pGEM4Z (Promega, Madison, Wis.) from the wild type human MEK1 cDNA. GST-MEK1^CA was expressed in Escherichia coli and partially purified using Glutathione Sepharose 4B affinity resin (Amersham Pharmacia Biotech, Piscataway, N.J.). The ERK2 allele was subcloned from MAPK2/Erk2 cDNA (wild type) in pUSEamp (Upstate Biotechnology, Inc., Waltham, Mass.) into the vector pET21a (Novagen, Madison, Wis.) resulting in an N-terminal histidine-tagged mouse ERK2 allele. […] Myelin basic protein (MBP) was purchased from Gibco BRL (Rockville, Md.). EasyTides adenosine 5′-triphosphate (ATP) ([γ-^33P]) (NEN Perkin Elmer, Wellesley, Mass.) was the source of radiolabel for all kinase reactions. Activated Raf-1 (truncated) and activated MAPKinase 2/ERK2 were purchased from Upstate, Inc. (Lake Placid, N.Y.). 4-20% Criterion Precast gels were purchased from Bio-Rad (Hercules, Calif.).
A typical 25-microliter assay contained 0.002 nanomoles MEK1^CA, 0.02 nanomoles ERK2, 0.25 nanomoles MBP, 0.25 nanomoles unlabeled ATP, and 0.1 μCi [γ^33P] ATP. The screening assay essentially comprised four additions. Five μl of diluted compound were dispensed to 96-well assay plates. Ten μl of 2.5× enzyme cocktail (MEK1^CA and ERK2 only) were then added to each well followed by a pre-incubation for 30 minutes at ambient temperature. […] Finally, 100 μl of 10% trichloroacetic acid (TCA) were added and incubated for 30 minutes at room temperature to halt the reaction and precipitate radiolabeled protein products. Reaction products were harvested on glass fiber 96 well filter plates prewetted with water and 1% pyrophosphate. The filter plate was then washed 5 times with water. Water was displaced by absolute ethanol and the plate was allowed to air dry for 30 minutes at room temperature. A back seal was applied manually and 40 μl of scintillation cocktail were dispensed to each well. A top seal was applied and the plate was counted in the TopCount for two seconds per well.

T1 sequence (Q02750 whole entry S218D/S222D): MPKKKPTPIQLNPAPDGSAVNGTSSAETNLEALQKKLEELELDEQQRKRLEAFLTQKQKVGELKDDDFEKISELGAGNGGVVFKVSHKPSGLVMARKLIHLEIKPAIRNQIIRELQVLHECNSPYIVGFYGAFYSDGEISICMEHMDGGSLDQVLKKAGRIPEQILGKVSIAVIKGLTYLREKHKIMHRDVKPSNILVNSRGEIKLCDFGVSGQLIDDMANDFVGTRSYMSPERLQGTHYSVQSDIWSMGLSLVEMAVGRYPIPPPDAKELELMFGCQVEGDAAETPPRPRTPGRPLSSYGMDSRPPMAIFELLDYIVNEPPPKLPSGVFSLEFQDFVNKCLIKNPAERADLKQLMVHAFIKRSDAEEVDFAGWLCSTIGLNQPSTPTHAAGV

Row | Compound | IC50 [nM]
1 | N=C(NCC(c1ccccc1)c1ccccc1)c1c(O)nsc1Nc1ccc(Oc2ccccc2)cc1 [compound 48] | 1 to 100
2 | CCOCCCNC(=N)c1c(O)nsc1Nc1ccc(Oc2ccccc2)cc1 [compound 49] | 1 to 100
3 | CC(CCc1ccccc1)NC(=N)c1c(O)nsc1Nc1ccc(Oc2ccccc2)cc1 (stereo not drawn) [compound 50] | 1 to 100
4 | CC(C)OCCCNC(=N)c1c(O)nsc1Nc1ccc(Oc2ccccc2)cc1 [compound 51] | 1 to 100
5 | CCC(C)CNC(=N)c1c(O)nsc1Nc1ccc(Oc2ccccc2)cc1 (stereo not drawn) [compound 52] | 1 to 100
6 | N=C(NCCN1CCCCC1)c1c(O)nsc1Nc1ccc(Oc2ccccc2)cc1 [compound 53] | 100 to 500
7 | COc1ccc(-c2ccccc2)cc1Nc1snc(O)c1C(=N)NCC1CCCCC1 [compound 62] | > 500
8 | N=C(NCC1CCCCC1)c1c(O)nsc1Nc1cc(C(F)(F)F)cc(C(F)(F)F)c1 [compound 66] | > 500
9 | N=C(NCC(O)CO)c1c(O)nsc1Nc1cc(C(F)(F)F)cc(C(F)(F)F)c1 (stereo not drawn) [compound 67] | > 500
10 | N=C(NCc1cccc2ccccc12)c1c(O)nsc1Nc1cc(C(F)(F)F)cc(C(F)(F)F)c1 [compound 68] | > 500
11 | N=C(NCC(O)CO)c1c(O)nsc1Nc1ccccc1F (stereo not drawn) [compound 69] | > 500
12 | N=C(NCC(O)CO)c1c(O)nsc1Nc1cccc(Cl)c1 (stereo not drawn) [compound 75] | 100 to 500
13 | N=C(NCC1CCCCC1)c1c(O)nsc1Nc1cccc(Oc2ccccc2)c1 [compound 83] | 100 to 500
14 | N=C(NCc1cccc2ccccc12)c1c(O)nsc1Nc1ccccc1 [compound 87] | > 500
15 | N=C(NCC1CCCCC1)c1c(O)nsc1Nc1ccc([N+](=O)[O-])cc1O [compound 89] | > 500
16 | N=C(NCC1CCCCC1)c1c(O)nsc1NC1CCCCC1 [compound 90] | > 500
17 | N=C(NCC1CCCCC1)c1c(O)nsc1NC12CC3CC(CC(C3)C1)C2 [compound 92] | > 500
18 | N=C(NCC1CCCCC1)c1c(O)nsc1Nc1cccc(Cl)c1Cl [compound 96] | > 500
19 | N=C(NCC1CCCCC1)c1c(O)nsc1Nc1ccc(C(F)(F)F)cc1Cl [compound 98] | > 500
20 | N=C(NCC1CCCCC1)c1c(O)nsc1Nc1ccc(Oc2ccccc2)nc1 [compound 103] | 100 to 500
21 | N=C(NCc1cccc2ccccc12)c1c(O)nsc1Nc1cccc(Cl)c1Cl [compound 105] | > 500

Row | Compound | IC50 [nM]
22 | Cc1cc(Nc2snc(O)c2C(=N)NCC2CCCCC2)c2ccccc2n1 [compound 107] | > 500
23 | N=C(N)c1c(O)nsc1Nc1ccc(Oc2ccccc2)cc1 [compound 110] | 100 to 500
24 | N=C(NCC1CCCCC1)c1c(O)nsc1Nc1ccc2c(c1)Cc1ccccc1-2 [compound 111] | > 500
25 | COCCCNc1snc(O)c1C(=N)NCCOc1ccccc1 [compound 112] | > 500
26 | N=C(NCCOc1ccccc1)c1c(O)nsc1NCC1CCCO1 (stereo not drawn) [compound 113] | > 500
27 | N=C(NCCc1ccc(O)cc1)c1c(O)nsc1NCCc1ccc(O)cc1 [compound 114] | > 500
28 | COc1ccc(CNC(=N)c2c(O)nsc2NCc2ccc(OC)cc2)cc1 [compound 115] | > 500
29 | N=C(NCC1CCCCC1)c1c(O)nsc1NC1CCc2ccccc21 (stereo not drawn) [compound 116] | > 500
30 | CC(C)Nc1snc(O)c1C(=N)NCC1CCCCC1 [compound 117] | > 500
31 | CC(Nc1snc(O)c1C(=N)NCC1CCCCC1)c1ccccc1 (stereo not drawn) [compound 118] | > 500
32 | N=C(NCC1CCCCC1)c1c(O)nsc1NCC1CC1 [compound 119] | > 500
33 | N=C(NCC1CCCCC1)c1c(O)nsc1NCCc1ccccc1 [compound 120] | > 500
34 | CCCCCNc1snc(O)c1C(=N)NCC1CCCCC1 [compound 121] | > 500
35 | N=C(NCCCO)c1c(O)nsc1NCC1CCCCC1 [compound 125] | > 500
36 | N=C(NO)c1c(O)nsc1Nc1ccc(Oc2ccccc2)cc1 [compound 130] | 1 to 100
37 | COc1cc2c(cc1Nc1snc(O)c1C(=N)NCC1CCCCC1)oc1ccccc12 [compound 131] | > 500
38 | N=C(NCC1CCCCC1)c1c(O)nsc1Nc1ccc(N2CCOCC2)nc1 [compound 132] | > 500
39 | Cc1ccc(Oc2ccc(Nc3snc(O)c3C(=N)NCC3CCCCC3)cn2)cn1 [compound 134] | > 500
40 | Oc1nsc(Nc2ccc(Oc3ccccc3)cc2)c1-c1nnn[nH]1 [compound 136] | > 500
41 | N=C(c1c(O)nsc1Nc1ccc(Oc2ccccc2)cc1)N(O)Cc1ccccc1 [compound 138] | 100 to 500

More lines, now with the values ahead:

Row | IC50 [nM] | Compound
42 | 100 to 500 | N=C(NCCN1CCOCC1)c1c(Nc2ccc(Oc3ccccc3)cc2)s[nH]c1=O [compound 54]
43 | 100 to 500 | N=C(NCC(O)CO)c1c(O)nsc1Nc1ccc(Br)cc1 (stereo not drawn) [compound 55]
44 | > 500 | Cc1ccc(Nc2sncc2C(=N)NC2CCCC2)cc1 [compound 56]
45 | > 500 | N=C(NCC1CCCCC1)c1c(O)nsc1Nc1ccc(CO)cc1 [compound 57]
46 | > 500 | CCCC1CCC(c2ccc(Nc3snc(O)c3C(=N)NCC3CCCCC3)cc2)CC1 (stereo not drawn) [compound 58]
47 | > 500 | COc1ccc(Nc2snc(O)c2C(=N)NCC2CCCCC2)cc1 [compound 60]
48 | 100 to 500 | N=C(NCC1CCCCC1)c1c(O)nsc1Nc1ccc(OCc2ccccc2)cc1 [compound 61]
49 | 100 to 500 | CCC[C@H]1CC[C@H](c2ccc(Nc3s[nH]c(=O)c3C(N)=NCC(O)CO)cc2)CC1 (stereo partly drawn) [compound 63]
50 | > 500 | N=C(NCC(O)CO)c1c(O)nsc1Nc1ccc(CO)cc1 (stereo not drawn) [compound 64]
51 | 100 to 500 | CC(C)c1ccc(Nc2snc(O)c2C(N)=NCC(O)CO)cc1 (stereo not drawn) [compound 70]
52 | > 500 | N#Cc1cccc(Nc2snc(O)c2C(N)=NCC2CCCCC2)c1 [compound 71]
53 | 100 to 500 | N=C(NCC(O)CO)c1c(O)nsc1Nc1cccc(Br)c1 (stereo not drawn) [compound 73]
54 | 1 to 100 | COc1ccc(Nc2snc(O)c2C(=N)NCC2CCCCC2)cn1 [compound 77]
55 | > 500 | N=C(NCC(O)O)c1c(O)nsc1Nc1ccc([N+](=O)[O-])cc1 [compound 78]
56 | > 500 | CC(C)c1ccc(Nc2snc(O)c2C(N)=NCC2CCCCC2)cc1 [compound 80]
57 | > 500 | Cc1cccc(Nc2snc(O)c2C(=N)NCC2CCCCC2)c1 [compound 81]
58 | 100 to 500 | N=C(NCC1CCCCC1)c1c(O)nsc1Nc1cccc([N+](=O)[O-])c1 [compound 82]
59 | 100 to 500 | N=C(NCC1CCCCC1)c1c(O)nsc1Nc1ccc(Sc2ccc([N+](=O)[O-])cc2)cc1 [compound 84]
60 | > 500 | N/C(=N\CC1CCCCC1)c1c(O)nsc1Nc1ccccc1C(=O)NCC1CCCCC1 [compound 88]

Row | IC50 [nM] | Compound
61 | > 500 | N=C(NCC1CCCCC1)c1c(O)nsc1Nc1ccccc1 [compound 93]
62 | 100 to 500 | CCCCc1ccc(Nc2snc(O)c2C(=N)NCC2CCCCC2)cc1 [compound 94]
63 | > 500 | N=C(NCC1CCCCC1)c1c(O)nsc1Nc1ccc(OC(F)F)cc1 [compound 95]
64 | > 500 | COC(=O)c1ccccc1Nc1snc(O)c1C(N)=NCC1CCCCC1 [compound 99]
65 | 1 to 100 | N=C(NCC1CCCCC1)c1c(O)nsc1Nc1ccc(Sc2ccccc2)cc1 [compound 100]
66 | 100 to 500 | N=C(NCC(O)CO)c1c(O)nsc1Nc1ccc(Cl)cc1 (stereo not drawn) [compound 101]
67 | 100 to 500 | N=C(NCC1CCCCC1)c1c(O)nsc1Nc1ccc(C(=O)c2ccccc2)cc1 [compound 104]
68 | > 500 | Cc1ccc2cc(Nc3snc(O)c3C(=N)NCC3CCCCC3)ccc2n1 [compound 106]
69 | > 500 | N=C(NCC1CCCCC1)c1c(O)nsc1NCc1ccc(C(F)(F)F)cc1 [compound 108]
70 | 1 to 100 | Cc1ccc(Oc2ccc(Nc3snc(O)c3C(=N)NCC3CCCCC3)cc2)cc1 [compound 109]
71 | > 500 | N=C(NCC1CCCCC1)c1c(O)nsc1Nc1ccc(N2CCCCC2)cc1 [compound 123]
72 | 100 to 500 | Cc1ccc(Oc2ccc(Nc3snc(O)c3C(=N)NCC3CCCCC3)cc2)cn1 [compound 124]
73 | > 500 | N=C(NCC1CCCCC1)c1c(O)nsc1Nc1ccc(Cl)nc1 [compound 126]
74 | 100 to 500 | N=C(NCC1CCCCC1)c1c(O)nsc1Nc1ccc(Cc2ccccc2)cc1 [compound 127]
75 | 100 to 500 | N=C(NCC1CCCCC1)c1c(O)nsc1Nc1ccc(/N=N/c2ccccc2)cc1 [compound 128]
76 | 100 to 500 | N=C(NCC(O)CO)c1c(O)nsc1Nc1ccc(Cc2ccccc2)cc1 (stereo not drawn) [compound 129]
77 | > 500 | N=C(NCC1CCCCC1)c1c(O)nsc1Nc1ccc(/C=C/c2ccccc2)cc1 [compound 133]
78 | > 500 | N=C(NCC1CCCCC1)c1c(O)nsc1Nc1ccc(Oc2cncnc2)cc1 [compound 137]
